Laboratory results published in patent US20250034153A1, “TRIAZOLOPYRIMIDINES AS A2A / A2B INHIBITORS” (Incyte Corporation, priority 2019, published 2025).

Key:
[1] = molecular target: Adenosine A2A (Homo sapiens (Human), UniProt P29274); assay: A2A Tag-lite HTRF assay (Example C); conditions: Tag-lite Adenosine A2A labeled cells, Red antagonist fluorescent ligand 12.5 nM, one-site competitive binding; read-out: A2A_Ki
Description: Example C. A2A Tag-Lite® HTRF Assay
Assays were conducted in black low volume 384-well polystyrene plates (Greiner 784076-25) in a final volume of 10 μL. Test compounds were first serially diluted in DMSO and 100 nl added to the plate wells before the addition of other reaction components. The final concentration of DMSO was 1%. Tag-lite® Adenosine A2A labeled cells (CisBio C1TT1A2A) were diluted 1:5 into Tag-lite buffer (CisBio LABMED) and spun 1200 g for 5 mins. The pellet was resuspended at a volume 10.4× the initial cell suspension volume in Tag-lite buffer, and Adenosine A2A Receptor Red antagonist fluorescent ligand (CisBio L0058RED) added at 12.5 nM final concentration. 10 ul of the cell and ligand mix was added to the assay wells and incubated at room temperature for 45 minutes before reading on a PHERAstar FS plate reader (BMG Labtech) with HTRF 337/620/665 optical module. Percent binding of the fluorescent ligand was calculated; where 100 nM of A2A antagonist control ZM 241385 (Tocris 1036) displaces the ligand 100% and 1% DMSO has 0% displacement. The % binding data versus the log of the inhibitor concentration was fitted to a one-site competitive binding model (GraphPad Prism version 7.02) where the ligand constant=12.5 nM and the ligand Kd=1.85 nM.

[2] = molecular target: human adenosine A2B receptor (Homo sapiens (Human), UniProt P29275); assay: Adenosine A2B receptor cyclic AMP GS assay (Example B); format: cell-based; conditions: HEK-293 cells expressing human A2B, agonist NECA 12 nM, cAMP accumulation (FRET); read-out: A2B_cAMP_EC50
Chain of human adenosine A2B receptor (P29275 whole entry): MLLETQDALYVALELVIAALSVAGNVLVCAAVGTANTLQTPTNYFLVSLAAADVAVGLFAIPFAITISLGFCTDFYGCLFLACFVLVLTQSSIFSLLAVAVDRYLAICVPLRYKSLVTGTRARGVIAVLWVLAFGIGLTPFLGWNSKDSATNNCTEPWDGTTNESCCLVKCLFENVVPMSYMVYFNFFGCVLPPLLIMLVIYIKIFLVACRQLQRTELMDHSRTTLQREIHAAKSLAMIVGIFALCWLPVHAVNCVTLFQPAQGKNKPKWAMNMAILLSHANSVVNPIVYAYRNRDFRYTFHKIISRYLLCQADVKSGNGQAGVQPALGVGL
Description: Example B. Adenosine A2B Receptor Cyclic AMP GS Assay
Stably transfected HEK-293 cells expressing the human adenosine A2B receptor (Perkin Elmer) were maintained in MEM culture medium with 10% FBS and 100 μg/ml Geneticin (Life Technologies). 18 to 24 hours prior to assay, geneticin was removed from culture. The cisbio cAMP-GS Dynamic kit utilizing the FRET (Fluorescence Resonance Energy Transfer) technology was used to measure cAMP accumulation in the cells. Compounds of the present disclosure at an appropriate concentration were mixed with 10000 cells/well in white 96 well half area plates (Perkin Elmer) for 30 min at RT gently shaking. Agonist, NECA (R&D Technologies) at 12 nM was added to each well for 60 min at RT gently shaking. Detection reagents, d2-labeled cAMP (acceptor) and anti-cAMP cryptate (donor) were added to each well for 60 min at RT gently shaking. Plates were read on Pherastar (BMG Labtech), fluorescence ratio 665/620 was calculated and EC50 determination was performed by fitting the curve of percent of control versus the log of the compound concentration using GraphPad Prism.

Chain of Adenosine A2A (P29274 whole entry): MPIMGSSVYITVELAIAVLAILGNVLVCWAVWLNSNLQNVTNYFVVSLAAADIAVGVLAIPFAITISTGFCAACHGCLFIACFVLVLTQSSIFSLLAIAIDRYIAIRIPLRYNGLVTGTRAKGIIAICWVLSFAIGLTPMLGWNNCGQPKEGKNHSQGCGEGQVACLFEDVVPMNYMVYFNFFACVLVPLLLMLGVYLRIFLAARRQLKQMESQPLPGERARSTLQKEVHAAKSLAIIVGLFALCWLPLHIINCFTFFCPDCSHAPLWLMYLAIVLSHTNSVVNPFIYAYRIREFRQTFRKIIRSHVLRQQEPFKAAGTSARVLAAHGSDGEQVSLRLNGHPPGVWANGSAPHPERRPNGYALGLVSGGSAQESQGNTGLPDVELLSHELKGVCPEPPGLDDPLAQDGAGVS

| SMILES | Ki [1] [nM] | EC50 [2] [nM] |
| --- | --- | --- |
| N#Cc1cccc(-c2nc(N)n3nc(Cn4nnnc4-c4cccc(N)c4)nc3c2-c2ccncn2)c1 [Example 1, 3-(5-amino-2-((5-(3-aminophenyl)-1H-tetrazol-1-yl)methyl)-8-(pyrimidin-4-yl)-[1,2,4]triazolo[1,5-c]pyrimidin-7-yl)benzonitrile] | ≤ 10 | ≤ 10 |
| Cc1cccc(-c2nnnn2Cc2nc3c(-c4ccncn4)c(-c4cccc(C#N)c4)nc(N)n3n2)n1 [Example 2, 3-(5-amino-2-((5-(6-methylpyridin-2-yl)-1H-tetrazol-1-yl)methyl)-8-(pyrimidin-4-yl)-[1,2,4]triazolo[1,5-c]pyrimidin-7-yl)benzonitrile] | ≤ 10 | ≤ 10 |
| COc1cccc(-c2nnnn2Cc2nc3c(-c4ccncn4)c(-c4cccc(C#N)c4)nc(N)n3n2)n1 [Example 3, 3-(5-amino-2-((5-(6-methoxypyridin-2-yl)-1H-tetrazol-1-yl)methyl)-8-(pyrimidin-4-yl)-[1,2,4]triazolo[1,5-c]pyrimidin-7-yl)benzonitrile] | ≤ 10 | 10 to 100 |
| Cn1cc(-c2c(-c3cccc(C#N)c3)nc(N)n3nc(Cn4nnnc4-n4cccn4)nc23)ccc1=O [Example 5, 3-(2-((5-(1H-pyrazol-1-yl)-1H-tetrazol-1-yl)methyl)-5-amino-8-(1-methyl-6-oxo-1,6-dihydropyridin-3-yl)-[1,2,4]triazolo[1,5-c]pyrimidin-7-yl)benzonitrile] | ≤ 10 | 10 to 100 |
| Cn1cc(-c2c(-c3cccc(C#N)c3)nc(N)n3nc(Cn4nnnc4-c4cnccn4)nc23)ccc1=O [Example 8, 3-(5-amino-8-(1-methyl-6-oxo-1,6-dihydropyridin-3-yl)-2-((5-(pyrazin-2-yl)-1H-tetrazol-1-yl)methyl)-[1,2,4]triazolo[1,5-c]pyrimidin-7-yl)benzonitrile] | ≤ 10 | 10 to 100 |
| N#Cc1cccc(-c2nc(N)n3nc(Cn4nnnc4-c4ccccn4)nc3c2-c2ccncc2)c1 [Example 10, 3-(5-amino-2-((5-(pyridin-2-yl)-1H-tetrazol-1-yl)methyl)-8-(pyridin-4-yl)-[1,2,4]triazolo[1,5-c]pyrimidin-7-yl)benzonitrile] | ≤ 10 | ≤ 10 |
| CN(C)c1cc(-c2c(-c3cccc(C#N)c3)nc(N)n3nc(Cn4nnnc4-c4ccccn4)nc23)ccn1 [Example 11, 3-(5-amino-8-(2-(dimethylamino)pyridin-4-yl)-2-((5-(pyridin-2-yl)-1H-tetrazol-1-yl)methyl)-[1,2,4]triazolo[1,5-c]pyrimidin-7-yl)benzonitrile] | ≤ 10 | ≤ 10 |
| N#Cc1cccc(-c2nc(N)n3nc(Cn4nnnc4-c4ccccn4)nc3c2-c2ccnc(N)c2)c1 [Example 12, 3-(5-amino-8-(2-aminopyridin-4-yl)-2-((5-(pyridin-2-yl)-1H-tetrazol-1-yl)methyl)-[1,2,4]triazolo[1,5-c]pyrimidin-7-yl)benzonitrile] | ≤ 10 | ≤ 10 |
| N#Cc1cccc(-c2nc(N)n3nc(Cc4c(F)cccc4-c4ccncc4)nc3c2-c2ccncc2)c1 [Example 13, 3-(5-amino-2-(2-fluoro-6-(pyridin-4-yl)benzyl)-8-(pyridin-4-yl)-[1,2,4]triazolo[1,5-c]pyrimidin-7-yl)benzonitrile] | ≤ 10 | ≤ 10 |
| N#Cc1cccc(-c2nc(N)n3nc(Cc4c(F)cccc4-c4ccnc(N)c4)nc3c2-c2ccnc(N)c2)c1 [Example 14, 3-(5-amino-8-(2-aminopyridin-4-yl)-2-(2-(2-aminopyridin-4-yl)-6-fluorobenzyl)-[1,2,4]triazolo[1,5-c]pyrimidin-7-yl)benzonitrile] | ≤ 10 | ≤ 10 |

The remaining lines, values ahead:

| Ki [1] [nM] | EC50 [2] [nM] | SMILES |
| --- | --- | --- |
| ≤ 10 | 10 to 100 | Cn1cc(-c2c(-c3cccc(C#N)c3)nc(N)n3nc(Cn4nnnc4-c4ccccn4)nc23)ccc1=O [Example 4, 3-(5-amino-8-(1-methyl-6-oxo-1,6-dihydropyridin-3-yl)-2-((5-(pyridin-2-yl)-1H-tetrazol-1-yl)methyl)-[1,2,4]triazolo[1,5-c]pyrimidin-7-yl)benzonitrile] |
| ≤ 10 | 10 to 100 | Cn1cc(-c2c(-c3cccc(C#N)c3)nc(N)n3nc(Cn4nnnc4-c4cscn4)nc23)ccc1=O [Example 6, 3-(5-amino-8-(1-methyl-6-oxo-1,6-dihydropyridin-3-yl)-2-((5-(thiazol-4-yl)-1H-tetrazol-1-yl)methyl)-[1,2,4]triazolo[1,5-c]pyrimidin-7-yl)benzonitrile] |
| ≤ 10 | 10 to 100 | Cn1cc(-c2c(-c3cccc(C#N)c3)nc(N)n3nc(Cn4nnnc4-c4ncccn4)nc23)ccc1=O [Example 7, 3-(5-amino-8-(1-methyl-6-oxo-1,6-dihydropyridin-3-yl)-2-((5-(pyrimidin-2-yl)-1H-tetrazol-1-yl)methyl)-[1,2,4]triazolo[1,5-c]pyrimidin-7-yl)benzonitrile] |
| ≤ 10 | 10 to 100 | Cn1nc(-c2c(-c3cccc(C#N)c3)nc(N)n3nc(Cn4nnnc4-c4ccccn4)nc23)ccc1=O [Example 9, 3-(5-amino-8-(1-methyl-6-oxo-1,6-dihydropyridazin-3-yl)-2-((5-(pyridin-2-yl)-1H-tetrazol-1-yl)methyl)-[1,2,4]triazolo[1,5-c]pyrimidin-7-yl)benzonitrile] |
| ≤ 10 | ≤ 10 | Cc1cccnc1CNc1nc2c(-c3ccc(=O)n(C)c3)c(-c3cccc(C#N)c3)nc(N)n2n1 [Example 15, 3-(5-amino-8-(1-methyl-6-oxo-1,6-dihydropyridin-3-yl)-2-(((3-methylpyridin-2-yl)methyl)amino)-[1,2,4]triazolo[1,5-c]pyrimidin-7-yl)benzonitrile] |
| ≤ 10 | ≤ 10 | CCn1cc(-c2c(-c3cccc(C#N)c3)nc(N)n3nc(NCc4ncccc4C)nc23)ccc1=O [Example 16, 3-(5-amino-8-(1-ethyl-6-oxo-1,6-dihydropyridin-3-yl)-2-(((3-methylpyridin-2-yl)methyl)amino)-[1,2,4]triazolo[1,5-c]pyrimidin-7-yl)benzonitrile] |
| ≤ 10 | ≤ 10 | Cc1cccnc1CNc1nc2c(-c3ccc(=O)n(C)n3)c(-c3cccc(C#N)c3)nc(N)n2n1 [Example 17, 3-(5-amino-8-(1-methyl-6-oxo-1,6-dihydropyridazin-3-yl)-2-(((3-methylpyridin-2-yl)methyl)amino)-[1,2,4]triazolo[1,5-c]pyrimidin-7-yl)benzonitrile] |
| ≤ 10 | ≤ 10 | Cc1cccnc1COc1nc2c(-c3ccc(=O)n(C)c3)c(-c3cccc(C#N)c3)nc(N)n2n1 [Example 18, 3-(5-amino-8-(1-methyl-6-oxo-1,6-dihydropyridin-3-yl)-2-((3-methylpyridin-2-yl)methoxy)-[1,2,4]triazolo[1,5-c]pyrimidin-7-yl)benzonitrile] |
| ≤ 10 | ≤ 10 | Cc1cccnc1COc1nc2c(-c3ccc(=O)n(C)n3)c(-c3cccc(C#N)c3)nc(N)n2n1 [Example 19, 3-(5-amino-8-(1-methyl-6-oxo-1,6-dihydropyridazin-3-yl)-2-((3-methylpyridin-2-yl)methoxy)-[1,2,4]triazolo[1,5-c]pyrimidin-7-yl)benzonitrile] |
| ≤ 10 | ≤ 10 | Cc1cnccc1-c1c(-c2cccc(C#N)c2)nc(N)n2nc(OCc3ncccc3C)nc12 [Example 20, 3-(5-amino-2-((3-methylpyridin-2-yl)methoxy)-8-(3-methylpyridin-4-yl)-[1,2,4]triazolo[1,5-c]pyrimidin-7-yl)benzonitrile] |
| ≤ 10 | 10 to 100 | Cc1cc(-c2c(-c3cccc(C#N)c3)nc(N)n3nc(OCc4ncccc4C)nc23)cc(C)n1 [Example 21, 3-(5-amino-8-(2,6-dimethylpyridin-4-yl)-2-((3-methylpyridin-2-yl)methoxy)-[1,2,4]triazolo[1,5-c]pyrimidin-7-yl)benzonitrile] |
| ≤ 10 | 10 to 100 | CCn1cc(-c2c(-c3cccc(C#N)c3)nc(N)n3nc(OCc4ncccc4C)nc23)ccc1=O [Example 22, 3-(5-amino-8-(1-ethyl-6-oxo-1,6-dihydropyridin-3-yl)-2-((3-methylpyridin-2-yl)methoxy)-[1,2,4]triazolo[1,5-c]pyrimidin-7-yl)benzonitrile] |
